Results on 2 compounds are retold here after ChEMBL document CHEMBL1157411, “Marine natural product libraries for high-throughput screening and rapid drug discovery” (J Nat Prod, 2008).

One assay has as its system Nucleic Acid. Description: Binding affinity to supercoiled pRYG plasmid DNA assessed as DNA intercalation at 50 uM after 21 hrs by electrophoresis. Type of assay: nucleic-acid assay.
Assay [1] in a line: Cytotoxicity against BRCA2-deficient Chinese hamster V-C8 mutant cells after 3 days by WST1 cell viability assay. The settings on record: Cricetulus griseus, WST1, 72 h. It is filed as functional, cell-based.
Assay [2] is described as follows: Cytotoxicity against BRCA2-proficient Chinese hamster BAC29 mutant cells after 3 days by WST1 cell viability assay. It is filed as functional, cell-based. The settings on record: Cricetulus griseus, WST1, 72 h.
Assay [3] in a line: Selectivity ratio for IC50 of BRCA2-deficient Chinese hamster V-C8 mutant cells to IC50 of BRCA2-proficient Chinese hamster BAC29 mutant cells. It is filed as functional, Cricetulus griseus.

Structures are written as SMILES. Calls of active or inactive are those of the source. The calls are words filed in the database; no cut-off is given here.

`COc1cccc2c1C(=O)c1c(O)c3c(c(O)c1C2=O)C[C@@](O)(C(=O)CO)C[C@@H]3O[C@H]1C[C@H](N)[C@H](O)[C@H](C)O1`: the result in the assay on Nucleic Acid was Active.

As for `CO[C@@]12[C@H](COC(N)=O)C3=C(C(=O)C(C)=C(N)C3=O)N1C[C@@H]1N[C@@H]12` [MITOMYCIN], the IC50 in assay [1] is 5 nM; in assay [2] it was 400 nM. For the same compound, in assay [3], the “Ratio IC50” value is 292.

As usually defined, the IC50 is the concentration at which inhibition is half-maximal.
